One experiment addresses T1, topo IIα (Homo sapiens, UniProt P11388).
T1 construct: gene TOP2A
As to the kind of experiment: cell-free relaxation assay of supercoiled pHOT1 plasmid DNA with purified human topo II, agarose gel. The experiment is classed as biochemical.

For another experiment, the target named is T2, topo I (Homo sapiens, UniProt P11387).
T2 construct: gene TOP1
T2 sequence (P11387 2-765): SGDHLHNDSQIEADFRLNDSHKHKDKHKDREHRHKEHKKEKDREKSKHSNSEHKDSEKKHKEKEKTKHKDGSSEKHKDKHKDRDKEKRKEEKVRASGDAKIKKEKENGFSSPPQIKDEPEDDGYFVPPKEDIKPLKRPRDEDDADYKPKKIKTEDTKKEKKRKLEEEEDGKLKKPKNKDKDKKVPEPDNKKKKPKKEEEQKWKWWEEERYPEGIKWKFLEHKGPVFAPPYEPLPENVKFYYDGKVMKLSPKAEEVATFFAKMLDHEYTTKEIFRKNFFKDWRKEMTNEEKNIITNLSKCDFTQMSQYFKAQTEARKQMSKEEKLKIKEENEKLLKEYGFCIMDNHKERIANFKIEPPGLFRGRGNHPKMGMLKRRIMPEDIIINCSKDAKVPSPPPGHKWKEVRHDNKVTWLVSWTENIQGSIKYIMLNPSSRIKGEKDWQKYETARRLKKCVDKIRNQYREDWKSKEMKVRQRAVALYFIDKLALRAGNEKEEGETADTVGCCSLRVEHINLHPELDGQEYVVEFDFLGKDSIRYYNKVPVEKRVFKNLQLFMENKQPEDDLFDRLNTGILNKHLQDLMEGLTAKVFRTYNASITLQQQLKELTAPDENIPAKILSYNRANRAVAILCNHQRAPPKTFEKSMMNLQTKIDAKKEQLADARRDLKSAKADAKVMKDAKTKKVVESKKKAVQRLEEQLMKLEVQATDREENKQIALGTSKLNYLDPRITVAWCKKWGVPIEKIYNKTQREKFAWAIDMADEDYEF
The experiment can be described thus: cell-free relaxation assay of supercoiled pHOT1 plasmid DNA with purified human topo I, agarose gel. The experiment is classed as biochemical.

As usually defined, the IC50 is the concentration at which inhibition is half-maximal. High values mean lower potency, low ones higher potency.

Molecules are shown by their SMILES.

T1 sequence (P11388 whole entry): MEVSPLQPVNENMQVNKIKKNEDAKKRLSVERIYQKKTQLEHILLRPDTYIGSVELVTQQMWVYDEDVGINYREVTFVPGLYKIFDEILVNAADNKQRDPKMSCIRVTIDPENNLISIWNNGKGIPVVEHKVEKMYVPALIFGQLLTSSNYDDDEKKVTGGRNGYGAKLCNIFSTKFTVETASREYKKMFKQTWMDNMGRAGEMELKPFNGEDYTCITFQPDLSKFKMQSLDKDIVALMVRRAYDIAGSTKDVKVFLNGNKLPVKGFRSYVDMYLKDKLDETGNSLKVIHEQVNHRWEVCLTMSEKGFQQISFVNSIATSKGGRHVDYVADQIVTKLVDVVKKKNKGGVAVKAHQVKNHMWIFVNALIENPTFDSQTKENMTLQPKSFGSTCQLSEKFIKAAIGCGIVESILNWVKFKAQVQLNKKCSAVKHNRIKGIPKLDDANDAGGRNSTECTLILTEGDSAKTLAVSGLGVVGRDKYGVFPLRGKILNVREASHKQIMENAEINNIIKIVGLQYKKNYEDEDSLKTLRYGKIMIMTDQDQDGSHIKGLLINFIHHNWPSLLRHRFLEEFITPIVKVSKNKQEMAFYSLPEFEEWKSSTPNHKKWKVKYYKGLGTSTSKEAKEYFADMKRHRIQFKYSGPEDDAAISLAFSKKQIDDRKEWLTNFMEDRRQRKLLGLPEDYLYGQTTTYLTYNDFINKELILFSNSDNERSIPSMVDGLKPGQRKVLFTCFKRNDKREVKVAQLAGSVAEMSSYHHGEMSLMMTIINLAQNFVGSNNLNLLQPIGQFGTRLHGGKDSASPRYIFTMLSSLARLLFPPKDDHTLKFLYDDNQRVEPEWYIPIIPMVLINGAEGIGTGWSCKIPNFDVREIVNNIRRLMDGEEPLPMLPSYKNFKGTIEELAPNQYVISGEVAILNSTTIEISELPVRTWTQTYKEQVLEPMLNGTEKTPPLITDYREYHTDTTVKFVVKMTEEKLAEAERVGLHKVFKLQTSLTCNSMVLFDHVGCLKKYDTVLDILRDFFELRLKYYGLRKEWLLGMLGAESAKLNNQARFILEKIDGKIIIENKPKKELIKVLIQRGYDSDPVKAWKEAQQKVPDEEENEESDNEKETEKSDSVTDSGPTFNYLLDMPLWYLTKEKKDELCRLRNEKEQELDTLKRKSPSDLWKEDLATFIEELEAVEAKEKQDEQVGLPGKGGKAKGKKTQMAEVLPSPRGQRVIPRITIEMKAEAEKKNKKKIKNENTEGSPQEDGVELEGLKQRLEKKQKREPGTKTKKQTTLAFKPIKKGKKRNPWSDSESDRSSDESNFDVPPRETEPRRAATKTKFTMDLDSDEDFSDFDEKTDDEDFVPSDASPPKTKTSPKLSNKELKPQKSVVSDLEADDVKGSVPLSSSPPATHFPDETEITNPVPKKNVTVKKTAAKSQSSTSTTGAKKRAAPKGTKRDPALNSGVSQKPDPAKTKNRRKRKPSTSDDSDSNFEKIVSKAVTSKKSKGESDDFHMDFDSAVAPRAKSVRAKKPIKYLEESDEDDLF

For `C[C@@]12CCC(=O)c3coc(c31)C(=O)c1cc3c(cc12)C(=O)C=CC3=O` [HQ, halenaquinone], the figures for the half-maximal inhibitory concentration (IC50) against topo IIα and at topo I were 0.0166 µM and 3.58 µM, respectively.

(Values after article PMC4446623, “Tackling the Cytotoxic Effect of a Marine Polycyclic Quinone-Type Metabolite: Halenaquinone Induces Molt 4 Cells Apoptosis via Oxidative Stress Combined with the Inhibition of HDAC and Topoisomerase Activities” (Marine Drugs, 2015).)
